Source: PubChem BioAssay AID2060882 (Molecular Pharmacology Branch, DTP, NCI, 2025)
pIC50: −log10 of the molar value. Each block holds one compound with its values, some of them ahead of it.

Tested on: 898857-211-R-J1-PDC complex spheroids, growth % test/control
Assay: Anticancer human tumor 898857-211-R-J1-PDC patient-derived melanoma cell line growth inhibition [RAS]
Settings: for pIC50: curve of first compound; for viability, T/C: stronger effect = lower value
In short: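 Agents were tested in combination matrices in half-log decrements from a top concentration at or near clinical Cmax (10 microM if undetermined). Targets were multi-cell spheroids of tumour lines plus HUVEC and MSC stromal cells.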

[1] = second compound 0.000949 µM, first compound 0.0316 µM
[2] = second compound 0.000949 µM, first compound 0.1 µM
[3] = second compound 0.000949 µM, first compound 0.316 µM
[4] = second compound 0.000949 µM, first compound 1 µM
[5] = second compound 0.000949 µM, first compound 3.16 µM
[6] = second compound 0.000949 µM, first compound 10 µM
[7] = second compound 0.003 µM, first compound 0.0316 µM
[8] = second compound 0.003 µM, first compound 0.1 µM
[9] = second compound 0.003 µM, first compound 0.316 µM
[10] = second compound 0.003 µM, first compound 1 µM
[11] = second compound 0.003 µM, first compound 3.16 µM
[12] = second compound 0.003 µM, first compound 10 µM
[13] = second compound 0.00949 µM, first compound 0.0316 µM
[14] = second compound 0.00949 µM, first compound 0.1 µM
[15] = second compound 0.00949 µM, first compound 0.316 µM
[16] = second compound 0.00949 µM, first compound 1 µM
[17] = second compound 0.00949 µM, first compound 3.16 µM
[18] = second compound 0.00949 µM, first compound 10 µM
[19] = second compound 0.03 µM, first compound 0.0316 µM
[20] = second compound 0.03 µM, first compound 0.1 µM
[21] = second compound 0.03 µM, first compound 0.316 µM
[22] = second compound 0.03 µM, first compound 1 µM
[23] = second compound 0.03 µM, first compound 3.16 µM
[24] = second compound 0.03 µM, first compound 10 µM
[25] = second compound 0.0949 µM, first compound 0.0316 µM
[26] = second compound 0.0949 µM, first compound 0.1 µM
[27] = second compound 0.0949 µM, first compound 0.316 µM
[28] = second compound 0.0949 µM, first compound 1 µM
[29] = second compound 0.0949 µM, first compound 3.16 µM
[30] = second compound 0.0949 µM, first compound 10 µM
[31] = second compound 0.3 µM, first compound 0.0316 µM
[32] = second compound 0.3 µM, first compound 0.1 µM
[33] = second compound 0.3 µM, first compound 0.316 µM
[34] = second compound 0.3 µM, first compound 1 µM
[35] = second compound 0.3 µM, first compound 3.16 µM
[36] = second compound 0.3 µM, first compound 10 µM
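Also: spheroids exposed to compound for seven days before readout.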
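For viability, T/C in this document: 100% = DMSO vehicle control wells.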

pIC50 (second compound 0.000949 µM): > 7.50 | pIC50 (second compound 0.003 µM): > 7.50 | pIC50 (second compound 0.00949 µM): > 7.50 | pIC50 (second compound 0.03 µM): > 7.50 | pIC50 (second compound 0.0949 µM): > 7.50 | pIC50 (second compound 0.3 µM): > 7.50
SMILES: CC(=O)OC12COC1CC(O)C1(C)C(=O)C(O)C3=C(C)C(OC(=O)C(O)C(NC(=O)OC(C)(C)C)c4ccccc4)CC(O)(C(OC(=O)c4ccccc4)C21)C3(C)C (stereo unspecified) + CCn1c(-c2cccnc2C(C)OC)c2c3cc(ccc31)N1CCOC(CC(NC(=O)C(C(C)C)N(C)C(=O)C3(F)CCN(C(=O)C#CC(C)(C)N(C)C)CC3)C(=O)N3CCCC(N3)C(=O)OCC(C)(C)C2)C1
viability, T/C [1]: 10.8% | viability, T/C [2]: 9.24% | viability, T/C [3]: 8.35% | viability, T/C [4]: 12.8% | viability, T/C [5]: 18.6% | viability, T/C [6]: 20.4% | viability, T/C [7]: 10.1% | viability, T/C [8]: 11.5% | viability, T/C [9]: 11.4% | viability, T/C [10]: 12.4% | viability, T/C [11]: 14% | viability, T/C [12]: 20.9% | viability, T/C [13]: 7.95% | viability, T/C [14]: 8.82% | viability, T/C [15]: 13.5% | viability, T/C [16]: 11.8% | viability, T/C [17]: 12.9% | viability, T/C [18]: 20.2% | viability, T/C [19]: 8.31% | viability, T/C [20]: 10.6% | viability, T/C [21]: 9.59% | viability, T/C [22]: 13.5% | viability, T/C [23]: 16.6% | viability, T/C [24]: 15.3% | viability, T/C [25]: 8.5% | viability, T/C [26]: 10.2% | viability, T/C [27]: 10.7% | viability, T/C [28]: 11.4% | viability, T/C [29]: 15.7% | viability, T/C [30]: 14.4% | viability, T/C [31]: 8.04% | viability, T/C [32]: 7.55% | viability, T/C [33]: 8.89% | viability, T/C [34]: 9.35% | viability, T/C [35]: 11.3% | viability, T/C [36]: 7.88%

pIC50 (second compound 0.000949 µM): < 5.00 | pIC50 (second compound 0.003 µM): < 5.00 | pIC50 (second compound 0.00949 µM): < 5.00 | pIC50 (second compound 0.03 µM): < 5.00 | pIC50 (second compound 0.0949 µM): < 5.00 | pIC50 (second compound 0.3 µM): 5.10
SMILES: NC1c2ccccc2OC12CCN(c1cnc3c(N4CCCc5ncccc54)n[nH]c3n1)CC2 (stereo unspecified) + CCn1c(-c2cccnc2C(C)OC)c2c3cc(ccc31)N1CCOC(CC(NC(=O)C(C(C)C)N(C)C(=O)C3(F)CCN(C(=O)C#CC(C)(C)N(C)C)CC3)C(=O)N3CCCC(N3)C(=O)OCC(C)(C)C2)C1
viability, T/C [1]: 91.6% | viability, T/C [2]: 94.3% | viability, T/C [3]: 99.9% | viability, T/C [4]: 90.7% | viability, T/C [5]: 101% | viability, T/C [6]: 70.9% | viability, T/C [7]: 95% | viability, T/C [8]: 88.7% | viability, T/C [9]: 90.4% | viability, T/C [10]: 90.9% | viability, T/C [11]: 97.9% | viability, T/C [12]: 67.8% | viability, T/C [13]: 99% | viability, T/C [14]: 106% | viability, T/C [15]: 101% | viability, T/C [16]: 87.2% | viability, T/C [17]: 89% | viability, T/C [18]: 74.3% | viability, T/C [19]: 103% | viability, T/C [20]: 100% | viability, T/C [21]: 101% | viability, T/C [22]: 96.6% | viability, T/C [23]: 95.1% | viability, T/C [24]: 63.8% | viability, T/C [25]: 82.9% | viability, T/C [26]: 87.2% | viability, T/C [27]: 97.7% | viability, T/C [28]: 91.1% | viability, T/C [29]: 84.8% | viability, T/C [30]: 55.4% | viability, T/C [31]: 73.3% | viability, T/C [32]: 77.6% | viability, T/C [33]: 67.9% | viability, T/C [34]: 72.9% | viability, T/C [35]: 72.6% | viability, T/C [36]: 44.1%

pIC50 (second compound 0.000949 µM): 8.17 | pIC50 (second compound 0.003 µM): 8.14 | pIC50 (second compound 0.00949 µM): 8.17 | pIC50 (second compound 0.03 µM): 8.22 | pIC50 (second compound 0.0949 µM): 8.24 | pIC50 (second compound 0.3 µM): 8.44
SMILES: Nc1ccn(C2OC(CO)C(O)C2(F)F)c(=O)n1 (stereo unspecified) + CCn1c(-c2cccnc2C(C)OC)c2c3cc(ccc31)N1CCOC(CC(NC(=O)C(C(C)C)N(C)C(=O)C3(F)CCN(C(=O)C#CC(C)(C)N(C)C)CC3)C(=O)N3CCCC(N3)C(=O)OCC(C)(C)C2)C1
viability, T/C (second compound 0.000949 µM, first compound 0.00316 µM): 92.8% | viability, T/C (second compound 0.000949 µM, first compound 0.01 µM): 27.9% | viability, T/C [1]: 5.77% | viability, T/C [2]: 4.12% | viability, T/C [3]: 5.73% | viability, T/C [4]: 5.16% | viability, T/C (second compound 0.003 µM, first compound 0.00316 µM): 100% | viability, T/C (second compound 0.003 µM, first compound 0.01 µM): 29.9% | viability, T/C [7]: 6.22% | viability, T/C [8]: 5.43% | viability, T/C [9]: 4.28% | viability, T/C [10]: 4.09% | viability, T/C (second compound 0.00949 µM, first compound 0.00316 µM): 95.7% | viability, T/C (second compound 0.00949 µM, first compound 0.01 µM): 25.6% | viability, T/C [13]: 5.43% | viability, T/C [14]: 3.4% | viability, T/C [15]: 4.91% | viability, T/C [16]: 4.53% | viability, T/C (second compound 0.03 µM, first compound 0.00316 µM): 86.8% | viability, T/C (second compound 0.03 µM, first compound 0.01 µM): 21% | viability, T/C [19]: 4.86% | viability, T/C [20]: 4.53% | viability, T/C [21]: 4.23% | viability, T/C [22]: 3.48% | viability, T/C (second compound 0.0949 µM, first compound 0.00316 µM): 86% | viability, T/C (second compound 0.0949 µM, first compound 0.01 µM): 15.7% | viability, T/C [25]: 4.15% | viability, T/C [26]: 3.36% | viability, T/C [27]: 3.77% | viability, T/C [28]: 4.54% | viability, T/C (second compound 0.3 µM, first compound 0.00316 µM): 54.6% | viability, T/C (second compound 0.3 µM, first compound 0.01 µM): 12.4% | viability, T/C [31]: 3.88% | viability, T/C [32]: 3.1% | viability, T/C [33]: 3.62% | viability, T/C [34]: 2.98%
